Source: patent US20220402882A1, “HERBICIDAL COMPOUNDS” (SYNGENTA CROP PROTECTION AG, priority 2019, published 2022)

How the values were obtained:
Format in all cases: in vivo
Conditions in all cases: evaluated after 13 days
[1] = system: Abutilon theophrasti (ABUTH); test: Pre-emergence glasshouse herbicide test
Method: (§1) Seeds of a variety of test species are sown in standard soil in pots (Lolium perenne (LOLPE), Amaranthus retoflexus (AMARE), Abutilon theophrasti (ABUTH), Setaria faberi (SETFA), Echinochloa crus-galli (ECHCG), Ipomoea hederacea (IPOHE)). After cultivation for one day (pre-emergence) or after 8 days cultivation (post-emergence) under controlled conditions in a glasshouse (at 24/16° C., day/night; 14 hours light; 65% humidity), the plants are sprayed with an aqueous spray solution derived from the formulation of the technical active ingredient in acetone/water (50:50) solution containing 0.5% Tween™ 20 (polyoxyethelyene sorbitan monolaurate, CAS RN 9005-64-5). Compounds are applied at 125 g/h unless otherwise indicated. The test plants are then grown in a glasshouse under controlled conditions in a glasshouse (at 24/16° C., day/night; 14 hours light; 65% humidity) and watered twice daily. After 13 days for pre- and post-emergence, the test is evaluated for the percentage damage caused to the plant. The biological activities are shown in the following table on a five-point scale (5=80-100%; 4=60-79%; 3=40-59%; 2=20-39%; 1=0-19%).

[2] = system: Amaranthus retoflexus (AMARE); test: Pre-emergence glasshouse herbicide test
Method: as §1

[3] = system: Echinochloa crus-galli (ECHCG); test: Pre-emergence glasshouse herbicide test
Method: as §1

[4] = system: Ipomoea hederacea (IPOHE); test: Pre-emergence glasshouse herbicide test
Method: as §1

Setaria faberi (SETFA) [5] = test: Pre-emergence glasshouse herbicide test
Method: as §1

[6] = system: Abutilon theophrasti (ABUTH); test: Post-emergence glasshouse herbicide test
Method: as §1

[7] = system: Amaranthus retoflexus (AMARE); test: Post-emergence glasshouse herbicide test
Method: as §1

[8] = system: Echinochloa crus-galli (ECHCG); test: Post-emergence glasshouse herbicide test
Method: as §1

[9] = system: Ipomoea hederacea (IPOHE); test: Post-emergence glasshouse herbicide test
Method: as §1

Setaria faberi (SETFA) [10] = test: Post-emergence glasshouse herbicide test
Method: as §1

Structure (SMILES) | percentage damage caused to the plant, ABUTH ([1]; 125 g/h) | percentage damage caused to the plant, AMARE ([2]; 125 g/h) | percentage damage caused to the plant, ECHCG ([3]; 125 g/h) | percentage damage caused to the plant, IPOHE ([4]; 125 g/h) | percentage damage caused to the plant, SETFA (Setaria faberi (SETFA) [5]; 125 g/h) | percentage damage caused to the plant, ABUTH ([6]; 125 g/h) | percentage damage caused to the plant, AMARE ([7]; 125 g/h) | percentage damage caused to the plant, ECHCG ([8]; 125 g/h) | percentage damage caused to the plant, IPOHE ([9]; 125 g/h) | percentage damage caused to the plant, SETFA (Setaria faberi (SETFA) [10]; 125 g/h) | percentage damage caused to the plant, ABUTH ([1]; *Applied at 250 g/ha) | percentage damage caused to the plant, AMARE ([2]; *Applied at 250 g/ha) | percentage damage caused to the plant, ECHCG ([3]; *Applied at 250 g/ha) | percentage damage caused to the plant, IPOHE ([4]; *Applied at 250 g/ha) | percentage damage caused to the plant, SETFA (Setaria faberi (SETFA) [5]; *Applied at 250 g/ha) | percentage damage caused to the plant, ABUTH ([6]; *Applied at 250 g/ha) | percentage damage caused to the plant, AMARE ([7]; *Applied at 250 g/ha) | percentage damage caused to the plant, ECHCG ([8]; *Applied at 250 g/ha) | percentage damage caused to the plant, IPOHE ([9]; *Applied at 250 g/ha) | percentage damage caused to the plant, SETFA (Setaria faberi (SETFA) [10]; *Applied at 250 g/ha)
CCSc1c(OCC(F)(F)F)ccc(C(=O)Nc2nnnn2C)c1C [Compound 1.038] | 4 (4=60-79%) | 5 (5=80-100%) | 2 (2=20-39%) | 2 (2=20-39%) | 2 (2=20-39%) | 5 (5=80-100%) | 5 (5=80-100%) | 5 (5=80-100%) | 4 (4=60-79%) | 5 (5=80-100%) | – | – | – | – | – | – | – | – | – | –
CCS(=O)(=O)c1cc(C(=O)Nc2nnc(C)o2)ccc1OC(F)(F)F [Compound 2.009] | 5 (5=80-100%) | 5 (5=80-100%) | 5 (5=80-100%) | 2 (2=20-39%) | 5 (5=80-100%) | 4 (4=60-79%) | 5 (5=80-100%) | 5 (5=80-100%) | 4 (4=60-79%) | 5 (5=80-100%) | – | – | – | – | – | – | – | – | – | –
CCCSc1c(OC(F)F)ccc(C(=O)Nc2nnnn2CC)c1Cl [Compound 1.067] | 4 (4=60-79%) | 5 (5=80-100%) | 5 (5=80-100%) | 2 (2=20-39%) | 4 (4=60-79%) | 5 (5=80-100%) | 5 (5=80-100%) | 4 (4=60-79%) | 4 (4=60-79%) | 4 (4=60-79%) | – | – | – | – | – | – | – | – | – | –
Cc1nnc(NC(=O)c2ccc(OC(F)(F)F)c(S(C)(=O)=O)c2Cl)o1 [Compound 2.005] | – | – | – | – | – | – | – | – | – | – | 5 (5=80-100%) | 5 (5=80-100%) | 5 (5=80-100%) | 1 (1=0-19%) | 5 (5=80-100%) | 5 (5=80-100%) | 5 (5=80-100%) | 5 (5=80-100%) | 5 (5=80-100%) | 5 (5=80-100%)
CCS(=O)(=O)c1c(OC(F)(F)F)ccc(C(=O)Nc2nnc(C)o2)c1C [Compound 2.011] | 5 (5=80-100%) | 5 (5=80-100%) | 5 (5=80-100%) | 5 (5=80-100%) | 5 (5=80-100%) | 5 (5=80-100%) | 5 (5=80-100%) | 5 (5=80-100%) | 4 (4=60-79%) | 5 (5=80-100%) | – | – | – | – | – | – | – | – | – | –
CSc1c(OC(F)(F)F)ccc(C(=O)Nc2nnnn2C)c1Cl [Compound 1.005, 2-chloro-3-methylsulfanyl-N-(1-methyltetrazol-5-yl)-4-(trifluoromethoxy)benzamide] | – | – | – | – | – | – | – | – | – | – | 2 (2=20-39%) | 4 (4=60-79%) | 1 (1=0-19%) | 1 (1=0-19%) | 1 (1=0-19%) | 5 (5=80-100%) | 5 (5=80-100%) | 5 (5=80-100%) | 5 (5=80-100%) | 5 (5=80-100%)
Cn1nnnc1NC(=O)c1ccc(OCC(F)F)c([S+](C)[O-])c1Cl (centres unmarked) [Compound 1.034] | 3 (3=40-59%) | 4 (4=60-79%) | 4 (4=60-79%) | 2 (2=20-39%) | 4 (4=60-79%) | 4 (4=60-79%) | 4 (4=60-79%) | 5 (5=80-100%) | 3 (3=40-59%) | 4 (4=60-79%) | – | – | – | – | – | – | – | – | – | –
CCn1nnnc1NC(=O)c1ccc(OC(F)(F)F)c(S(=O)(=O)CC)c1Cl [Compound 1.047] | 5 (5=80-100%) | 5 (5=80-100%) | 5 (5=80-100%) | 5 (5=80-100%) | 5 (5=80-100%) | 5 (5=80-100%) | 5 (5=80-100%) | 5 (5=80-100%) | 5 (5=80-100%) | 5 (5=80-100%) | – | – | – | – | – | – | – | – | – | –
CCn1nnnc1NC(=O)c1ccc(OCC(F)(F)F)c(S(=O)(=O)CC)c1Cl [Compound 1.065] | 5 (5=80-100%) | 5 (5=80-100%) | 5 (5=80-100%) | 3 (3=40-59%) | 5 (5=80-100%) | 5 (5=80-100%) | 5 (5=80-100%) | 5 (5=80-100%) | 4 (4=60-79%) | 5 (5=80-100%) | – | – | – | – | – | – | – | – | – | –
CCSc1c(OC(F)F)ccc(C(=O)Nc2nnc(C)o2)c1Cl [Compound 2.012] | 4 (4=60-79%) | 5 (5=80-100%) | 5 (5=80-100%) | 3 (3=40-59%) | 5 (5=80-100%) | 5 (5=80-100%) | 5 (5=80-100%) | 5 (5=80-100%) | 4 (4=60-79%) | 5 (5=80-100%) | – | – | – | – | – | – | – | – | – | –
CCS(=O)(=O)c1c(OC(F)F)ccc(C(=O)Nc2nnc(C)o2)c1C [Compound 2.014] | 5 (5=80-100%) | 5 (5=80-100%) | 5 (5=80-100%) | 5 (5=80-100%) | 5 (5=80-100%) | 5 (5=80-100%) | 5 (5=80-100%) | 5 (5=80-100%) | 4 (4=60-79%) | 5 (5=80-100%) | – | – | – | – | – | – | – | – | – | –
CCSc1c(OCC(F)(F)F)ccc(C(=O)Nc2nnnn2C)c1Cl [Compound 1.037] | 3 (3=40-59%) | 5 (5=80-100%) | 4 (4=60-79%) | 1 (1=0-19%) | 3 (3=40-59%) | 5 (5=80-100%) | 5 (5=80-100%) | 5 (5=80-100%) | 3 (3=40-59%) | 5 (5=80-100%) | – | – | – | – | – | – | – | – | – | –
CCCSc1c(OC(F)F)ccc(C(=O)Nc2nnnn2C)c1Cl [Compound 1.066] | 5 (5=80-100%) | 5 (5=80-100%) | 5 (5=80-100%) | 3 (3=40-59%) | 5 (5=80-100%) | 5 (5=80-100%) | 5 (5=80-100%) | 4 (4=60-79%) | 5 (5=80-100%) | 4 (4=60-79%) | – | – | – | – | – | – | – | – | – | –
CCn1nnnc1NC(=O)c1ccc(OCC(F)(F)F)c(S(=O)(=O)CC)c1C [Compound 1.063] | 5 (5=80-100%) | 5 (5=80-100%) | 5 (5=80-100%) | 4 (4=60-79%) | 5 (5=80-100%) | 5 (5=80-100%) | 5 (5=80-100%) | 5 (5=80-100%) | 3 (3=40-59%) | 5 (5=80-100%) | – | – | – | – | – | – | – | – | – | –
